Legend:
[1] = test system: AMBEL (Ragweed, Common); test: Postemergence herbicidal evaluation; format: in vivo, Ambrosia artemisifolia; conditions: postemergence
How it was run: (§1)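 Two-week seedlings sprayed postemergence at 40 psi; formulation: 1:1 acetone/water, 0.5% TWEEN 20; application ≈0.0156–0.500 kg/ha. Greenhouse grow-out, then 0–9 visual scoring at 4–5 weeks.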

[2] = test system: IPOHE (Morningglory, Ivyleaf); test: Postemergence herbicidal evaluation; format: in vivo, Ipomoea hederacea; conditions: postemergence
How it was run: as §1

[3] = test system: GLXMAW (Soybean, Williams); test: Postemergence herbicidal evaluation; format: in vivo, Glycine max, (L.) Merr. cv Williams; conditions: postemergence
How it was run: as §1

[4] = test system: ZEAMX (Corn, Field); test: Postemergence herbicidal evaluation; format: in vivo, Zea mays; conditions: postemergence
How it was run: as §1

[5] = test system: ABUTH (Velvetleaf); test: Preemergence herbicidal evaluation; format: in vivo, Abutilon theophrasti; conditions: preemergence, rated 4-5 weeks after treatment, 0-9 scale
How it was run: (§2)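 In this greenhouse assay, monocot and dicot seeds are planted in soil and treated prior to emergence with an aqueous acetone spray (about 0.0156-0.500 kg/ha). Plants are assessed visually against control on a 0-9 scale after 4-5 weeks.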

[6] = test system: AMBEL (Ragweed, Common); test: Preemergence herbicidal evaluation; format: in vivo, Ambrosia artemisifolia; conditions: preemergence, rated 4-5 weeks after treatment, 0-9 scale
How it was run: as §2

[7] = test system: CASOB (Sicklepod); test: Preemergence herbicidal evaluation; format: in vivo, Cassia obtusifolia; conditions: preemergence, rated 4-5 weeks after treatment, 0-9 scale
How it was run: as §2

[8] = test system: GALAP (Galium); test: Preemergence herbicidal evaluation; format: in vivo, Galium aparine; conditions: preemergence, rated 4-5 weeks after treatment, 0-9 scale
How it was run: as §2

[9] = test system: ECHCG (Barnyardgrass); test: Preemergence herbicidal evaluation; format: in vivo, Echinochloa crus-galli; conditions: preemergence, rated 4-5 weeks after treatment, 0-9 scale
How it was run: as §2

[10] = test system: SETVI (Foxtail, Green); test: Preemergence herbicidal evaluation; format: in vivo, Setaria viridis; conditions: preemergence, rated 4-5 weeks after treatment, 0-9 scale
How it was run: as §2

[11] = test system: GLXMAW (Soybean, Williams); test: Preemergence herbicidal evaluation; format: in vivo, Glycine max, (L.) Merr. cv Williams; conditions: preemergence, rated 4-5 weeks after treatment, 0-9 scale
How it was run: as §2

[12] = test system: CYPSE (Flatsedge); test: Preemergence weed control under flooded paddy conditions; format: in vivo, Cyperus serotinus; conditions: rated 3-4 weeks after treatment
How it was run: (§3)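 First, seeds or propagules go into the top 0.5 cm of silt loam; next, water is held 1.5 to 3 cm over the soil; then compound (50/50 acetone/water) is pipetted into it at about 0.0313 to 0.500 kg/ha; finally plants are rated visually 0-9 after three to four weeks.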

[13] = test system: SAGPY (Arrowhead (Pygmaea)); test: as above; format: in vivo, Sagittaria pygmaea; conditions: rated 3-4 weeks after treatment
How it was run: as §3

[14] = test system: ECHORC (Watergrass (Calif.)); test: Postemergence weed control under flooded paddy conditions; format: in vivo, Echinochloa oryzoides; conditions: postemergence weeds, rated 3 to 4 weeks after treatment
How it was run: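 With weeds 3 to 5 cm tall and rice at the 1.5 to 2.5 leaf stage, containers were flooded and water held 1.5 to 3 cm above soil. Compounds in 50/50 v/v aqueous/acetone went into the flood water at about 0.0313 to 0.500 kg/ha a.i. Effects were visually rated 0–9 against controls after three to four weeks in the greenhouse.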

CCOC(=O)CN1C(=O)C(CC(=O)NS(=O)(=O)CC)SC1=Nc1cc(-n2c(=O)cc(C(F)(F)F)n(C)c2=O)c(F)cc1Cl (stereo not drawn) [Compound 103, Ethyl 2-{{2-chloro-5-[3,6-dihydro-3-methyl-2,6-dioxo-4-(trifluoromethyl)-1(2H)-pyrimidinyl]-4-fluorophenyl}imino}-5-{[(ethylsulfonyl)carbamoyl]-methyl}-4-oxo-3-thiazolidineacetate]
herbicidal rating AMBEL ([1]; rate 0.0156 kg/ha): 9.0
herbicidal rating AMBEL ([1]; rate 0.0313 kg/ha): 9.0
herbicidal rating AMBEL ([1]; rate 0.0625 kg/ha): 9.0
herbicidal rating AMBEL ([1]; rate 0.1250 kg/ha): 9.0
herbicidal rating IPOHE ([2]; rate 0.0156 kg/ha): 9.0
herbicidal rating IPOHE ([2]; rate 0.0313 kg/ha): 9.0
herbicidal rating IPOHE ([2]; rate 0.0625 kg/ha): 9.0
herbicidal rating IPOHE ([2]; rate 0.1250 kg/ha): 9.0
herbicidal rating GLXMAW ([3]; rate 0.0156 kg/ha): 8.0
herbicidal rating GLXMAW ([3]; rate 0.0313 kg/ha): 7.0
herbicidal rating GLXMAW ([3]; rate 0.0625 kg/ha): 9.0
herbicidal rating GLXMAW ([3]; rate 0.1250 kg/ha): 9.0
herbicidal rating ZEAMX ([4]; rate 0.0156 kg/ha): 5.5
herbicidal rating ZEAMX ([4]; rate 0.0313 kg/ha): 7.5
herbicidal rating ZEAMX ([4]; rate 0.0625 kg/ha): 8.5
herbicidal rating ZEAMX ([4]; rate 0.1250 kg/ha): 8.5
ABUTH rating ([5]; 0.0313 kg/ha): 9.0
ABUTH rating ([5]; 0.0625 kg/ha): 9.0
ABUTH rating ([5]; 0.1250 kg/ha): 9.0
ABUTH rating ([5]; 0.2500 kg/ha): 9.0
ABUTH rating ([5]; 0.5000 kg/ha): 9.0
AMBEL rating ([6]; 0.0313 kg/ha): 0.0
AMBEL rating ([6]; 0.0625 kg/ha): 0.0
AMBEL rating ([6]; 0.1250 kg/ha): 0.0
AMBEL rating ([6]; 0.2500 kg/ha): 4.0
AMBEL rating ([6]; 0.5000 kg/ha): 9.0
CASOB rating ([7]; 0.0313 kg/ha): 0.0
CASOB rating ([7]; 0.0625 kg/ha): 0.0
CASOB rating ([7]; 0.1250 kg/ha): 0.0
CASOB rating ([7]; 0.2500 kg/ha): 3.0
CASOB rating ([7]; 0.5000 kg/ha): 3.0
GALAP rating ([8]; 0.0313 kg/ha): 0.0
GALAP rating ([8]; 0.0625 kg/ha): 0.0
GALAP rating ([8]; 0.1250 kg/ha): 0.0
GALAP rating ([8]; 0.2500 kg/ha): 0.0
GALAP rating ([8]; 0.5000 kg/ha): 7.0
ECHCG rating ([9]; 0.0313 kg/ha): 0.0
ECHCG rating ([9]; 0.0625 kg/ha): 0.0
ECHCG rating ([9]; 0.1250 kg/ha): 0.0
ECHCG rating ([9]; 0.2500 kg/ha): 0.0
ECHCG rating ([9]; 0.5000 kg/ha): 2.0
SETVI rating ([10]; 0.0313 kg/ha): 0.0
SETVI rating ([10]; 0.0625 kg/ha): 0.0
SETVI rating ([10]; 0.1250 kg/ha): 3.0
SETVI rating ([10]; 0.2500 kg/ha): 3.0
SETVI rating ([10]; 0.5000 kg/ha): 9.0
GLXMAW rating ([11]; 0.0313 kg/ha): 0.0
GLXMAW rating ([11]; 0.0625 kg/ha): 0.0
GLXMAW rating ([11]; 0.1250 kg/ha): 0.0
GLXMAW rating ([11]; 0.2500 kg/ha): 0.0
GLXMAW rating ([11]; 0.5000 kg/ha): 3.0
CYPSE herbicidal effect rating ([12]; 0.0313 kg/ha): 5.0
CYPSE herbicidal effect rating ([12]; 0.0625 kg/ha): 5.0
CYPSE herbicidal effect rating ([12]; 0.1250 kg/ha): 6.0
CYPSE herbicidal effect rating ([12]; 0.2500 kg/ha): 6.0
SAGPY herbicidal effect rating ([13]; 0.0313 kg/ha): 7.0
SAGPY herbicidal effect rating ([13]; 0.0625 kg/ha): 9.0
SAGPY herbicidal effect rating ([13]; 0.1250 kg/ha): 9.0
SAGPY herbicidal effect rating ([13]; 0.2500 kg/ha): 9.0
Herbicidal rating ECHORC ([14]; Rate 0.0313 kg/ha): 4.0
Herbicidal rating ECHORC ([14]; Rate 0.0625 kg/ha): 4.0
Herbicidal rating ECHORC ([14]; Rate 0.1250 kg/ha): 5.0
Herbicidal rating ECHORC ([14]; Rate 0.2500 kg/ha): 6.0

Reference: US20020137929A1, “1 - (3-heterocyclylphenyl) isothiourea, -isourea, -guanidine and -amidine herbicidal agents” (Intellectual Property Department, BASF Aktiengesellschaft, priority 1998, published 2002)
